From patent US12673933B2, “Aminopyrazine compounds as HPK1 inhibitor and the use thereof” (BEIGENE, LTD., priority 2019, dated 2026)

Target: T1, HPK1 kinase (aa1-346, Life Technologies) (Homo sapiens, UniProt Q92918)
T1 construct: HPK1 kinase (aa1-346, Life Technologies); purchased Life Technologies
T1 sequence (Q92918 1-346): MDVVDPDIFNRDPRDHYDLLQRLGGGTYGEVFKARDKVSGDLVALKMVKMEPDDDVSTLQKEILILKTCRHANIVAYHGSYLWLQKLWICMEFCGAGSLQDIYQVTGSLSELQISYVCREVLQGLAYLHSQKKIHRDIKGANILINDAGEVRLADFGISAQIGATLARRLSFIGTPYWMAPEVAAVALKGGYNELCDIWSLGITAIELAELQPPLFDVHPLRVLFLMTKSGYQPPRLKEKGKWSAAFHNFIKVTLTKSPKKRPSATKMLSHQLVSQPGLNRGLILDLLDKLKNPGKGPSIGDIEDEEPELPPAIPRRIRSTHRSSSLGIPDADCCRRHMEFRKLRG
Assay: HPK Kinase Activity Assay at 1 mM ATP (TR-FRET)
Format: biochemical
Details: HPK1 kinase 40 nM, 0.5 μM STK1 substrate, read-out: Enzymatic activity IC50
Description: HPK Kinase Activity Assay at 1 mM ATP
Compounds disclosed herein were tested for inhibition of HPK1 kinase (aa1-346, Life Technologies) activity in assays based on the time-resolved fluorescence-resonance energy transfer (TR-FRET) methodology. The assays were carried out in 384-well low volume black plates in a reaction mixture containing HPK1 kinase (40 nM), 1 mM ATP, 0.5 μM STK1 substrate and 0-10 μM compound in buffer containing 50 mM HEPES, 0.01% BSA, 0.1 mM Orthovanadate, 10 mM MgCl2, 1 mM DTT, pH=7.0, 0.005% Tween-20. The kinase was incubated with the compounds disclosed herein or DMSO for 60 minutes at room temperature and the reaction was initiated by the addition of ATP and STK1 substrate. After reaction at room temperature for 120 minutes, an equal volume of stop/detection solution was added according to the manufacture's instruction (CisBio). The stop/detection solution contained STK Antibody-Cryptate and XL665-conjugated streptavidin in Detection Buffer. The TR-FRET signals (ratio of fluorescence emission at 665 nm over emission at 620 nm with excitation at 337 nm wavelength) were recorded on a PHERAstar FS plate reader (BMG Labtech). Phosphorylation of STK1 substrate led to the binding of STK Antibody-Cryptate to the biotinylated STK1 substrate, which places fluorescent donor (Eu^3+ crypate) in close proximity to the accepter (Streptavidin-XL665), thus resulting in a high degree of fluorescence resonance energy transfer. The inhibition of HPK1 in presence of increasing concentrations of compounds was calculated based on the ratio of fluorescence at 665 nm to that at 620 nm. The IC50 for each compound was derived from fitting the data to the four-parameter logistic equation by Graphpad Prism software.

IC50	Compound
12 nM	Cc1cc(-c2cnc(N)c(Oc3cnn(C4CCN(C)C4)c3)n2)cc2c1CCN(C)C2 (single isomer, unassigned) [Example 280A]
51 nM	Cc1cc(-c2cnc(N)c(Oc3cnn(C4CCN(C)C4)c3)n2)cc2c1CCN(C)C2 (single isomer, unassigned) [Example 280B]
29 nM	Cc1cc(-c2cnc(N)c(OCc3ccncc3)n2)cc2c1CCN(C)C2 [Example 1, 5-(2,5-dimethyl-1,2,3,4-tetrahydroisoquinolin-7-yl)-3-(pyridin-4-ylmethoxy)pyrazin-2-amine]
364 nM	Cc1cc(-c2cnc(N)c(OCc3ccncn3)n2)cc2c1CCN(C)C2 [Example 3, 5-(2,5-dimethyl-1,2,3,4-tetrahydroisoquinolin-7-yl)-3-(pyrimidin-4-ylmethoxy)pyrazin-2-amine]
75 nM	Cc1cc(-c2cnc(N)c(-n3ncc4cc(CO)ccc43)n2)cc2c1CCN(C)C2 [Example 4, (1-(3-amino-6-(2,5-dimethyl-1,2,3,4-tetrahydroisoquinolin-7-yl)pyrazin-2-yl)-1H-indazol-5-yl)methanol]
172 nM	Cc1cc(-c2cnc(N)c(-n3cc4cc(CO)ccc4n3)n2)cc2c1CCN(C)C2 [Example 5, (2-(3-amino-6-(2,5-dimethyl-1,2,3,4-tetrahydroisoquinolin-7-yl)pyrazin-2-yl)-2H-indazol-5-yl)methanol]
15 nM	Cc1cc(-c2cnc(N)c(-n3cc(O)cn3)n2)cc2c1CCN(C)C2 [Example 7, 1-(3-amino-6-(2,5-dimethyl-1,2,3,4-tetrahydroisoquinolin-7-yl)pyrazin-2-yl)-1H-pyrazol-4-ol]
46 nM	Cc1cc(-c2cnc(N)c(OCc3ccncc3F)n2)cc2c1CCN(C)C2 [Example 8, 5-(2,5-dimethyl-1,2,3,4-tetrahydroisoquinolin-7-yl)-3-((3-fluoropyridin-4-yl)methoxy)pyrazin-2-amine]
17 nM	Cc1cnccc1COc1nc(-c2cc(C)c3c(c2)CN(C)CC3)cnc1N [Example 9, 5-(2,5-dimethyl-1,2,3,4-tetrahydroisoquinolin-7-yl)-3-((3-methylpyridin-4-yl)methoxy)pyrazin-2-amine]
5.2 nM	Cc1cc(-c2cnc(N)c(OCc3ccnc(N)c3)n2)cc2c1CCN(C)C2 [Example 10, 3-((2-aminopyridin-4-yl)methoxy)-5-(2,5-dimethyl-1,2,3,4-tetrahydroisoquinolin-7-yl)pyrazin-2-amine]
50 nM	Cc1cc(-c2cnc(N)c(OCc3ccnc(C#CC4CC4)c3)n2)cc2c1CCN(C)C2 [Example 11, 3-((2-(cyclopropylethynyl)pyridin-4-yl)methoxy)-5-(2,5-dimethyl-1,2,3,4-tetrahydroisoquinolin-7-yl)pyrazin-2-amine]
27 nM	Cc1cc(-c2cnc(N)c(OCc3cc(Cl)ncc3OC(C)C)n2)cc2c1CCN(C)C2 [Example 12, 3-((2-chloro-5-isopropoxypyridin-4-yl)methoxy)-5-(2,5-dimethyl-1,2,3,4-tetrahydroisoquinolin-7-yl)pyrazin-2-amine]
62 nM	Cc1cc(-c2cnc(N)c(OC3CCc4cnccc43)n2)cc2c1CCN(C)C2 (stereo not drawn) [Example 13, 3-(6,7-dihydro-5H-cyclopenta[c]pyridin-5-yloxy)-5-(2,5-dimethyl-1,2,3,4-tetrahydroisoquinolin-7-yl)pyrazin-2-amine]
9.4 nM	Cc1cc(-c2cnc(N)c(OCc3ccnc(C#CC(C)(C)O)c3)n2)cc2c1CCN(C)C2 [Example 14, 4-(4-(((3-amino-6-(2,5-dimethyl-1,2,3,4-tetrahydroisoquinolin-7-yl)pyrazin-2-yl)oxy)methyl)pyridin-2-yl)-2-methylbut-3-yn-2-ol]
157 nM	Cc1cc(-c2cnc(N)c(OCc3cccnc3)n2)cc2c1CCN(C)C2 [Example 15, 5-(2,5-dimethyl-1,2,3,4-tetrahydroisoquinolin-7-yl)-3-(pyridin-3-ylmethoxy)pyrazin-2-amine]
231 nM	Cc1cc(-c2cnc(N)c(OCc3c(Cl)cccc3Cl)n2)cc2c1CCN(C)C2 [Example 17, 3-((2,6-dichlorobenzyl)oxy)-5-(2,5-dimethyl-1,2,3,4-tetrahydroisoquinolin-7-yl)pyrazin-2-amine]
73 nM	Cc1cc(-c2cnc(N)c(OCc3ccccc3)n2)cc2c1CCN(C)C2 [Example 18, 3-(benzyloxy)-5-(2,5-dimethyl-1,2,3,4-tetrahydroisoquinolin-7-yl)pyrazin-2-amine]
98 nM	Cc1cc(-c2cnc(N)c(OCc3ccnc(C#Cc4cccnc4)c3)n2)cc2c1CCN(C)C2 [Example 19, 5-(2,5-dimethyl-1,2,3,4-tetrahydroisoquinolin-7-yl)-3-((2-(pyridin-3-ylethynyl)pyridin-4-yl)methoxy)pyrazin-2-amine]
151 nM	Cc1cc(-c2cnc(N)c(OCc3ccnc(C#Cc4ccc(F)cc4)c3)n2)cc2c1CCN(C)C2 [Example 20, 5-(2,5-dimethyl-1,2,3,4-tetrahydroisoquinolin-7-yl)-3-((2-((4-fluorophenyl)ethynyl)pyridin-4-yl)methoxy)pyrazin-2-amine]
35 nM	Cc1cc(-c2cnc(N)c(OCc3ccncc3Cl)n2)cc2c1CCN(C)C2 [Example 21, 3-((3-chloropyridin-4-yl)methoxy)-5-(2,5-dimethyl-1,2,3,4-tetrahydroisoquinolin-7-yl)pyrazin-2-amine]
38 nM	Cc1cc(-c2cnc(N)c(OCc3ccnc4ccccc34)n2)cc2c1CCN(C)C2 [Example 22, 5-(2,5-dimethyl-1,2,3,4-tetrahydroisoquinolin-7-yl)-3-(quinolin-4-ylmethoxy)pyrazin-2-amine]
137 nM	Cc1cc(-c2cnc(N)c(OCc3ccnc(C#Cc4ccncc4)c3)n2)cc2c1CCN(C)C2 [Example 23, 5-(2,5-dimethyl-1,2,3,4-tetrahydroisoquinolin-7-yl)-3-((2-(pyridin-4-ylethynyl)pyridin-4-yl)methoxy)pyrazin-2-amine]
61 nM	Cc1cc(-c2cnc(N)c(OCc3ccnc(C#CC(C)(C)C)c3)n2)cc2c1CCN(C)C2 [Example 24, 5-(2,5-dimethyl-1,2,3,4-tetrahydroisoquinolin-7-yl)-3-((2-(3,3-dimethylbut-1-yn-1-yl)pyridin-4-yl)methoxy)pyrazin-2-amine]
13 nM	CC#Cc1cc(COc2nc(-c3cc(C)c4c(c3)CN(C)CC4)cnc2N)ccn1 [Example 25, 5-(2,5-dimethyl-1,2,3,4-tetrahydroisoquinolin-7-yl)-3-((2-(prop-1-ynyl)pyridin-4-yl)methoxy)pyrazin-2-amine]
113 nM	Cc1cc(-c2cnc(N)c(OC3CCCc4cnccc43)n2)cc2c1CCN(C)C2 (stereo not drawn) [Example 26, 5-(2,5-dimethyl-1,2,3,4-tetrahydroisoquinolin-7-yl)-3-(5,6,7,8-tetrahydroisoquinolin-5-yloxy)pyrazin-2-amine]
16 nM	Cc1cc(-c2cnc(N)c(OCc3ccnc(N)c3C)n2)cc2c1CCN(C)C2 [Example 29, 3-((2-amino-3-methylpyridin-4-yl)methoxy)-5-(2,5-dimethyl-1,2,3,4-tetrahydroisoquinolin-7-yl)pyrazin-2-amine]
7.6 nM	Cc1cc(-c2cnc(N)c(OCc3ccncc3OC(C)C)n2)cc2c1CCN(C)C2 [Example 30, 5-(2,5-dimethyl-1,2,3,4-tetrahydroisoquinolin-7-yl)-3-((3-isopropoxypyridin-4-yl)methoxy)pyrazin-2-amine]
